{
  "source": "patent US6420174B1",
  "about": "“Method of producing organogenetic tissue from a plant of the genus Mentha” (Council of Scientific and Industrial Research, priority 2000, dated 2002)",
  "key": {"Root pieces": {"tested_on": "Root pieces", "test": "Response of other explants in different media: root pieces", "type": "cell-based, Mentha arvensis", "procedure": "(§1) In the next phase, the callus was sub cultured in three different media: i) the basal medium MSO containing only the vitamins and minerals without any growth hormones; ii) MSA-2 medium which is MSO with 0.2 μg ml^−1 concentration of NAA and 5 μg ml^−1 of a cytokinin BAP; and iii) MT-80 medium which is MSO with only 80 μg ml^−1 menthol. On each kind of these media, an independent callus (50 mg ) or 5 independently regenerated shoots were inoculated per flask in 5 replications each. The experiment was conducted in the completely randomized design (CRD) fashion. Cultures were incubated and maintained at 25±2° C. and 400-600 lux light intensity with 16-hour photoperiod. The response was recorded every 24 hours over a period of one week and then weekly upto one month.\n(§2) At this stage, the applicants wanted to know whether any other parts of the plant (explants) show similar response as callus and lead to direct regeneration. In the same experimental design we inoculated different parts of the plant in different media and the observations were recorded after 7 and 15 days."}, "[1]": {"tested_on": "in vitro raised somaclones (shootlets)", "test": "Earlier screening of in vitro raised somaclones in medium containing toxic concentrations of menthol", "type": "cell-based, Mentha arvensis", "conditions": "above 70 μg ml^−1 in the medium", "procedure": "The applicants earlier developed a protocol for screening high menthol yielding plants by inoculating the in vitro raised somaclones in medium containing toxic concentrations of menthol in the tissue culture medium (Patent pending). In this procedure, screening of 2850 variants yielded 30 clones surviving 70 μg ml^−1 of menthol concentration in the medium out of which only 5 stable clones could be isolated which were of high menthol content type in comparison to the parent variety ‘Himalaya’ (U.S. Pat No. PP 10935). […] At this point, the applicants planned experiments to subject the callus directly to menthol selection instead of the regenerated shoots to save on time, space and labour. The logic was to isolate the tolerant cell lines if any, growing from this callus later."}, "Mentha arvensis callus": {"tested_on": "Mentha arvensis callus", "test": "Shooting response of callus in different media", "type": "cell-based, Mentha arvensis L. cv. Himalaya", "excerpt": "(§3) The plant variety used in these experiments was cv. Himalaya (U.S. Pat No. PP10935) of Mentha arvensis L. (2n=96). The suckers of M. arvensis L. cv. Himalaya for multiplication of the plant material and future experimentation were obtained from CIMAP's gene bank. For callus production, the explant material was collected from the field grown plants and surface sterilized by washing sequentially with 2% detergent, distilled water containing a few drops of Savlon (Johnson and Johnson, India), 0 1% acidified mercuric chloride and autoclaved distilled water before inoculation. About 1 cm long internode pieces were inoculated in the Murashige and Skoog medium (Murashige T, Skoog F; 1962. A revised medium for rapid growth and bioassay with tobacco tissue cultures. Physiol Planta, 15:473-497) supplemented with 0.2 μg ml^−1 of an auxin (NAA, 1-napthalene acetic acid) and 5 μg ml^−1 of a cytokinin (BAP, benzyl aminopurine). […]\n(§4) In the next phase, the callus was sub cultured in three different media: i) the basal medium MSO containing only the vitamins and minerals without any growth hormones; ii) MSA-2 medium which is MSO with 0.2 μg ml^−1 concentration of NAA and 5 μg ml^−1 of a cytokinin BAP; and iii) MT-80 medium which is MSO with only 80 μg ml^−1 menthol. […] The response was recorded every 24 hours over a period of one week and then weekly upto one month. […]"}, "[2]": {"tested_on": "regenerated shoots of Mentha arvensis", "test": "Response of regenerated shoots in different media", "type": "cell-based", "conditions": "Mentha arvensis L. cv. Himalaya, 7 days", "excerpt": "as §3, §4"}, "Internodes": {"tested_on": "Internodes", "test": "Response of other explants in different media: internodes", "type": "cell-based, Mentha arvensis", "conditions": "7 days", "procedure": "as §1, §2"}, "regenerated shoots": {"tested_on": "regenerated shoots", "test": "Characteristics and growth of regenerated shoots (leaf dimensions)", "type": "cell-based, Mentha arvensis", "conditions": "medium containing 80 μg ml^−1 of menthol", "procedure": "as §1\nThe leaves were also larger in the shoots regenerated on the medium containing 80 μg ml^−1 of menthol (Table 4)."}},
  "data": [
    {"smiles": "CC1CCC(C(C)C)C(O)C1", "note": "(stereo not shown) [menthol]", "values": [
      {"measurement": "Response of root pieces", "setting": "Root pieces; MSO + 60 ppm menthol, 7 days", "value": "No change"},
      {"measurement": "Response of root pieces", "setting": "Root pieces; MSO + 70 ppm menthol, 7 days", "value": "No change"},
      {"measurement": "Response of root pieces", "setting": "Root pieces; MSO + 70 ppm menthol, 15 days", "value": "Wilting started"},
      {"measurement": "Response of root pieces", "setting": "Root pieces; MSO + 80 ppm menthol, 7 days", "value": "Wilting"},
      {"measurement": "Response of root pieces", "setting": "Root pieces; MSO + 80 ppm menthol, 15 days", "value": "Wilting"},
      {"measurement": "Effect on shootlets of increasing menthol concentration further", "setting": "[1]", "value": "killed all the shootlets"},
      {"measurement": "Time to visible shoot induction from callus", "setting": "Mentha arvensis callus; MSO medium containing menthol 80 μg ml^−1", "value": "7 to 10", "unit": "days"},
      {"measurement": "Response of transferred callus pieces", "setting": "Mentha arvensis callus; text of Example 2, up to 21 days", "value": "induced shoot regeneration"},
      {"measurement": "Toxic concentration at which the regenerated shoots die", "setting": "[2]", "value": "≥ 80", "unit": "µg/mL"},
      {"measurement": "Response of internodes", "setting": "Internodes; MSO + 60 ppm menthol", "value": "Green"},
      {"measurement": "Response of internodes", "setting": "Internodes; MSO + 70 ppm menthol", "value": "Green"},
      {"measurement": "Response of internodes", "setting": "Internodes; MSO + 80 ppm menthol", "value": "Wilting"},
      {"measurement": "Growth of menthol-induced shoots compared to shoots growing on other media", "setting": "regenerated shoots", "value": "more vigorous in growth"}
    ]}
  ]
}
